US20240425478A1, “CYCLOPENTYLPYRAZOLE CDK2 INHIBITORS” (Genentech, Inc., priority 2021, published 2024)
Like-named read-outs stand apart in the source and are kept apart here.

How the values were obtained:
[1] = target: T1, Cyclin Dependent Kinase 2/Cyclin E1 (CDK2-cycE1) (Homo sapiens, UniProt P24941); assay: CDK2-cycE1 TR-FRET (LANCE) enzyme assay; assay type: biochemical; conditions: for FS CDK1/CDK2 / FS CDK4/CDK2: fold selectivity; for FS CDK1/CDK2: enzymatic CDK1 Ki over CDK2 Ki; for FS CDK4/CDK2: enzymatic CDK4 Ki over CDK2 Ki; for CDK2 Ki fold change in potency versus Comparator D / CDK2 Ki fold change in potency versus Comparator E: in brackets after CDK2 Ki
T1 construct: purchased ProQinase 0050-0055-1
In short: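 Kinase reaction buffer: 50 mM HEPES pH 7.5, 10 mM MgCl2, 2 mM TCEP, 0.05% BGG, 0.01% Brij 35, with 30 min compound–enzyme pre-incubation.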

[2] = test system: OVISE (JCRB1043, CCNE1-amplified); assay: OVISE EdU incorporation cell proliferation assay (CDK2-dependent); assay type: cell-based; conditions: for CDK2 cell potency compared with Comparator E: CDK2 OVISE cellular assay data; for IC50 / FS SKOV-3/OVISE / FS p-H3/OVISE: Table O; for IC50: cellular assay, read-out: CDK2 OVISE IC50; for FS SKOV-3/OVISE / FS p-H3/OVISE: fold selectivity; for FS SKOV-3/OVISE: cellular SKOV-3 IC50 over OVISE IC50; for FS p-H3/OVISE: cellular p-H3 IC50 over OVISE IC50; for CDK2 OVISE IC50 fold change in potency versus Comparator D: Table R; for CDK2 OVISE IC50 fold change in potency versus Comparator D / CDK2 OVISE IC50 fold change in potency versus Comparator E: in brackets after OVISE IC50; for CDK2 OVISE IC50 fold change in potency versus Comparator E: Table S
In short: (§1)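 EdU incorporation (0.5 μM final, last 8 h) follows a 16 h compound exposure at 37 °C, 5% CO2 in RPMI plus 10% FBS, 0.5% DMSO. After fixation, imaging scores EdU-positive cells; a 4-parameter logistic fit of that fraction gives IC50.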

SKOV-3 (ATCC HTB-77) = assay: SKOV-3 EdU incorporation cell proliferation assay (CDK4/6-dependent); assay type: cell-based; conditions: for IC50: Homo sapiens, cellular assay, read-out: CDK4/6 SKOV-3 IC50; for selectivity for CDK2 over CDK4 compared with Comparator E: SKOV-3/OVISE fold-selectivity cellular assay data; for FS SKOV-3/OVISE: fold selectivity, cellular IC50 ratio
In short: as §1

[3] = target: T2, Cyclin Dependent Kinase 1/Cyclin A2 (CDK1-cycA2) (Homo sapiens, UniProt P06493); assay: CDK1-cycA2 TR-FRET (Lance) enzyme assay; assay type: biochemical; conditions: for Ki: Table O, enzymatic assay; for FS CDK1/CDK2: fold selectivity, enzymatic Ki ratio
T2 construct: purchased ProQinase 0134-0054-1
In short: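 TR-FRET (Lance) detection of phospho-4E-BP1 with a europium-labelled antibody after EDTA quench (15 mM final); signal taken as acceptor/donor ratio. Enzyme and compound were pre-incubated 30 min in HEPES pH 7.5 buffer with MgCl2, TCEP, BGG and Brij 35. Ki derived by Morrison fit.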

HCT116 cells = assay: p-H3 HCT-116 mitotic release cell proliferation assay (cellular CDK1); assay type: cell-based; conditions: Homo sapiens, HCT-116; Table O, cellular assay; read-out: CDK1 p-H3 IC50
In short: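 Phospho-Histone H3 (Ser10) in lysates was quantified by a two-antibody HTRF FRET read (≥2 h, room temperature). Before this, HCT116 cells held in mitosis by 16 h of 500 nM nocodazole were treated with compound for 4 h at 37 °C, 0.1% DMSO.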

[4] = target: T3, Cyclin Dependent Kinase 4/Cyclin D3 (CDK4-cycD3) (Homo sapiens, UniProt P11802); assay: CDK4-cycD3 TR-FRET (LANCE) enzyme assay; assay type: biochemical; conditions: for Ki: Table O, enzymatic assay; for FS CDK4/CDK2: fold selectivity, enzymatic Ki ratio
T3 construct: purchased Carna Biosciences 04-105
In short: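 Compound dose responses pre-incubated 30 min with enzyme mix in 50 mM HEPES pH 7.5, 10 mM MgCl2, 2 mM TCEP, 0.05% BGG, 0.01% Brij 35. Reaction quenched with EDTA (15 mM final); Eu-anti-phospho-4E-BP1 TR-FRET detection, acceptor/donor ratio. Ki derived by Morrison equation.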

[5] = Table O, enzymatic assay, read-out: CDK2 Ki
[6] = Table R, enzymatic assay, read-out: CDK2 Ki
[7] = Table S, enzymatic assay, read-out: CDK2 Ki

T2 sequence (P06493 whole entry): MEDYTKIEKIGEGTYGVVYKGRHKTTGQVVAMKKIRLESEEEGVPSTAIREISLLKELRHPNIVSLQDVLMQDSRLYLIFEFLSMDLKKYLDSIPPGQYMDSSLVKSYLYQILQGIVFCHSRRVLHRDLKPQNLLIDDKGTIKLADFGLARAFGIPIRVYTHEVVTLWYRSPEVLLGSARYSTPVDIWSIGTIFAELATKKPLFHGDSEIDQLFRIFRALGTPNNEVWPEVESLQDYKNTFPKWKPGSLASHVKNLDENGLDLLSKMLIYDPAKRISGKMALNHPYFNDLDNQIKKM
T2 sequence (P20248 whole entry partner): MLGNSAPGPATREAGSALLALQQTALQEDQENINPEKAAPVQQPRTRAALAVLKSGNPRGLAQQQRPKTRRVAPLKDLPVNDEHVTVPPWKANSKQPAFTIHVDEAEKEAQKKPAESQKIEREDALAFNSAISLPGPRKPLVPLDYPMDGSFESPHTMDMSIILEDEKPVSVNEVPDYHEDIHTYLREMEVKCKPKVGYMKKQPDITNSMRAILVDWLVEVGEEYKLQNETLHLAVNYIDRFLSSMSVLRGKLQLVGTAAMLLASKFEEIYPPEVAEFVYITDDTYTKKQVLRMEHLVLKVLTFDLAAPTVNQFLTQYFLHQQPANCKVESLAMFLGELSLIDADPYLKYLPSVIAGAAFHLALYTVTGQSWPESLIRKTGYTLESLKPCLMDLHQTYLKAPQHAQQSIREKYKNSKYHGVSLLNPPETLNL
T3 sequence (P11802 whole entry): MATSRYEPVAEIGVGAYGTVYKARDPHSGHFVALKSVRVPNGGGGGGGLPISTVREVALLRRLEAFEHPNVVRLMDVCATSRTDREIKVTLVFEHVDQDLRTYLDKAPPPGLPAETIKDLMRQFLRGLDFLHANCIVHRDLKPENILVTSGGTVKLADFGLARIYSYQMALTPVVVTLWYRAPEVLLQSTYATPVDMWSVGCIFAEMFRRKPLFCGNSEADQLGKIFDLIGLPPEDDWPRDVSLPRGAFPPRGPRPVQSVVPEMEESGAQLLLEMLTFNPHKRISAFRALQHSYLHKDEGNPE
T3 sequence (P30281 whole entry partner): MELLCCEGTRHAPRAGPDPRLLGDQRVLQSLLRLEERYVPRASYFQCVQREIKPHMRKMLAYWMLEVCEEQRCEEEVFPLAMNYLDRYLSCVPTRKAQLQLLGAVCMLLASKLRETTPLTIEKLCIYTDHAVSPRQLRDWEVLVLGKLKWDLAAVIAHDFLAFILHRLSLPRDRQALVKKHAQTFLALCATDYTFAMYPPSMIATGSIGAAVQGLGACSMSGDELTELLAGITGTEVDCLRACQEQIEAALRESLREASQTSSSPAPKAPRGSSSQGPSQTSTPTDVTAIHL

Row | Structure (SMILES) | Ki [1, 5] [nM] | FS CDK1/CDK2 ([1]; Table O) | FS CDK4/CDK2 ([1]; Table O) | Ki [1, 6] [nM] | CDK2 Ki fold change in potency versus Comparator D ([1]; Table R) [fold] | Ki [1, 7] [nM] | CDK2 Ki fold change in potency versus Comparator E ([1]; Table S) [fold] | IC50 [2] [nM] | FS SKOV-3/OVISE [2] | FS p-H3/OVISE [2] | CDK2 OVISE IC50 fold change in potency versus Comparator D [2] [fold] | CDK2 OVISE IC50 fold change in potency versus Comparator E [2] [fold] | IC50 (SKOV-3 (ATCC HTB-77); SK-OV-3, Table O) [nM] | FS SKOV-3/OVISE increased over Comparator D, (+) sign (SKOV-3 (ATCC HTB-77); Table R) | FS SKOV-3/OVISE (SKOV-3 (ATCC HTB-77); Table R) | FS SKOV-3/OVISE (SKOV-3 (ATCC HTB-77); Table S) | Ki [3] [nM] | FS CDK1/CDK2 increased over Comparator D, (+) sign ([3]; Table R) | FS CDK1/CDK2 ([3]; Table R) | FS CDK1/CDK2 ([3]; Table S) | other results
1 | Cc1cc(Nc2cc([C@H]3CC[C@@H](OC(=O)NC(C)(C)C)C3)[nH]n2)nn(C)c1=O [Example 4D, (1R,3S)-3-(3-((1,5-dimethyl-6-oxo-1,6-dihydropyridazin-3-yl)amino)-1H-pyrazol-5-yl)cyclopentyl tert-butylcarbamate] | < 0.1 | >59 | >620 | < 0.1 | 27 | < 0.1 | 5.2 | 26 | 58 | 0.35 | 146 | 6.5 | 1500 | (+) | 58 | 58 | 3.7 | (+) | > 59 | >59 | Ki ([1]; read-out: CDK2 activity / potency (enzymatic assay)): ≤ 1 nM; CDK2 cell potency compared with Comparator E [2]: more potent CDK2 cell inhibitors compared to Comparator E; selectivity for CDK2 over CDK4 compared with Comparator E (SKOV-3 (ATCC HTB-77)): increase in selectivity for CDK2 over CDK4; FS SKOV-3/OVISE increased over Comparator E, (+) sign (SKOV-3 (ATCC HTB-77); Table S): (+); IC50 (HCT116 cells): 9.2 nM; Ki [4]: 39 nM; FS CDK4/CDK2 increased over Comparator D, (+) sign ([4]; Table R): (+); FS CDK4/CDK2 ([4]; Table R): > 620; FS CDK4/CDK2 increased over Comparator E, (+) sign ([4]; Table S): (+); FS CDK4/CDK2 ([4]; Table S): > 620
2 | CNC(=O)c1ccc(Nc2cc([C@H]3CC[C@@H](OC(=O)NC(C)(C)C)C3)[nH]n2)nc1 [Example 4E, (1R,3S)-3-(3-((5-(methylcarbamoyl)pyridin-2-yl)amino)-1H-pyrazol-5-yl)cyclopentyl tert-butylcarbamate] | 1.6 | 47 | 53 | 1.6 | 1.7 | 1.6 | 0.3 | 96 | 27 | 1.1 | 40 | 1.8 | 2600 | (+) | 27 | 27 | 75 | (+) | 47 | 47 | CDK2 cell potency compared with Comparator E [2]: more potent CDK2 cell inhibitors compared to Comparator E; IC50 (SKOV-3 (ATCC HTB-77); SK-OV-3, Table R): 2600 nM; IC50 (SKOV-3 (ATCC HTB-77); SK-OV-3, Table S): 2600 nM; selectivity for CDK2 over CDK4 compared with Comparator E (SKOV-3 (ATCC HTB-77)): increase in selectivity for CDK2 over CDK4; FS SKOV-3/OVISE increased over Comparator E, (+) sign (SKOV-3 (ATCC HTB-77); Table S): (+); IC50 (HCT116 cells): 100 nM; Ki [4]: 84 nM; FS CDK4/CDK2 increased over Comparator D, (+) sign ([4]; Table R): (+); FS CDK4/CDK2 ([4]; Table R): 53; FS CDK4/CDK2 increased over Comparator E, (+) sign ([4]; Table S): (+); FS CDK4/CDK2 ([4]; Table S): 53
3 | CNC(=O)c1ccnc(Nc2cc([C@H]3CC[C@@H](OC(=O)NC(C)(C)C)C3)[nH]n2)c1 [Example 4F, (1R,3S)-3-(3-((4-(methylcarbamoyl)pyridin-2-yl)amino)-1H-pyrazol-5-yl)cyclopentyl tert-butylcarbamate] | 2.5 | 21 | 15 | 2.5 | 1.1 | 2.5 | 0.2 | 190 | 8.9 | 0.35 | 20 | 0.9 | 1700 | (+) | 8.9 | 8.9 | 52 | (+) | 21 | 21 | IC50 (SKOV-3 (ATCC HTB-77); SK-OV-3, Table R): 1700 nM; IC50 (SKOV-3 (ATCC HTB-77); SK-OV-3, Table S): 1700 nM; IC50 (HCT116 cells): 66 nM; Ki [4]: 37 nM; FS CDK4/CDK2 increased over Comparator D, (+) sign ([4]; Table R): (+); FS CDK4/CDK2 ([4]; Table R): 15; FS CDK4/CDK2 ([4]; Table S): 15
4 | CC(C)(C)NC(=O)O[C@@H]1CC[C@H](c2cc(Nc3ccccn3)n[nH]2)C1 [Example 4G, (1R,3S)-3-(3-(pyridin-2-ylamino)-1H-pyrazol-5-yl)cyclopentyl tert-butylcarbamate] | 1.7 | 44 | 16 | 1.7 | 1.6 | 1.7 | 0.3 | 240 | 6.3 | 1.0 | 16 | 0.7 | 1500 | (+) | 6.3 | 6.3 | 75 | (+) | 44 | 44 | IC50 (SKOV-3 (ATCC HTB-77); SK-OV-3, Table R): 1500 nM; IC50 (SKOV-3 (ATCC HTB-77); SK-OV-3, Table S): 1500 nM; IC50 (HCT116 cells): 240 nM; Ki [4]: 27 nM; FS CDK4/CDK2 increased over Comparator D, (+) sign ([4]; Table R): (+); FS CDK4/CDK2 ([4]; Table R): 16; FS CDK4/CDK2 ([4]; Table S): 16
